Measured values: PubChem BioAssay (NCI)
Where “and” joins values, the source holds several entries; their conditions need not be identical. Identical values can stand only once.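 Exposure lasted 48 hours, with cells grown in 96-well plates and compounds tested at five concentrations. At the GI50, growth is halved. TGI is the concentration that stops growth completely.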

Experiments:
Assay in all cases: inhibition of tumour cell growth, NCI panel, 48 h
M19-MEL melanoma = system: M19-MEL melanoma
KM20L2 colon = system: KM20L2 colon
SNB-75 CNS = system: SNB-75 CNS
EKVX NSCLC = system: EKVX NSCLC
NCI-H460 lung = system: NCI-H460 lung
HOP-92 NSCLC = system: HOP-92 NSCLC
HS 578T breast = system: HS 578T breast
U251 CNS = system: U251 CNS
MALME-3M melanoma = system: MALME-3M melanoma
OVCAR-8 ovarian = system: OVCAR-8 ovarian
MCF7 breast = system: MCF7 breast

Structure (SMILES) | TGI (M19-MEL melanoma) | TGI (KM20L2 colon) | TGI (SNB-75 CNS) | GI50 (EKVX NSCLC) | TGI (EKVX NSCLC) | GI50 (NCI-H460 lung) | TGI (HOP-92 NSCLC) | GI50 (HS 578T breast) | TGI (U251 CNS) | TGI (MALME-3M melanoma) | TGI (OVCAR-8 ovarian) | TGI (NCI-H460 lung) | TGI (MCF7 breast) | TGI (HS 578T breast) | GI50 (SNB-75 CNS)
O=C1C=CC(=O)c2c(O)c(N3CCN(CCOCCO)CC3)c(Cl)c(O)c21 | 1.08 µM | 2.07 µM | 3.16 µM [middle of 4 runs] | 1.9 µM [middle of 4 runs] | 4.4 µM [middle of 4 runs] | 1.57 µM | 0.45 µM and 0.493 µM and 1.12 µM | 0.218 µM | – | – | – | – | – | – | –
C#CCC1(C(=O)OCC)C(=O)c2ccccc2N(C)C1=O (stereo unspecified) | > 100 µM | > 100 µM | > 100 µM | – | > 100 µM | – | > 100 µM | – | > 100 µM | > 100 µM | > 100 µM | > 100 µM | – | – | –
O=C1C=CC(=O)c2c(Cl)ccc(O)c21 | 30 µM | 18.5 µM | > 63.4 µM | – | 43 µM | – | 6.96 µM | – | > 100 µM | 32.7 µM | 50.2 µM | > 100 µM | 31.1 µM | – | –
NS(=O)(=O)c1ccc(NNc2c3ccccc3nc3c(C(=O)Nc4ccc(S(=O)(=O)Nc5ncccn5)cc4)cccc23)cc1 | – | – | > 25 µM | – | > 25 µM | – | > 25 µM | – | > 25 µM | > 25 µM | > 25 µM | > 25 µM | > 25 µM | > 25 µM | –
CCOC(=O)c1cnccc1CC1(C#N)c2ccccc2C=CN1C(=O)c1ccccc1 (stereo unspecified) | – | – | 52.9 µM | – | > 100 µM | – | > 100 µM | – | > 100 µM | 26.5 µM | 37.2 µM | 89.5 µM | > 100 µM | 46.4 µM | –
CCOC(=O)C1CCCCN1CCc1c[nH]c2ccccc12 (stereo unspecified) | – | – | > 100 µM | – | > 100 µM | – | > 100 µM | – | > 100 µM | > 100 µM | > 100 µM | > 100 µM | > 100 µM | > 100 µM | –
N#Cc1nc(C#N)n(C(=O)c2ccccc2)c1NC(=O)c1ccccc1 | – | – | > 100 µM | – | > 100 µM | – | > 100 µM | – | > 100 µM | > 100 µM | > 100 µM | > 100 µM | > 100 µM | > 100 µM | –
NC1=NCC(CN2CCCC2)O1 (stereo unspecified) | – | – | > 100 µM | – | > 100 µM | – | > 100 µM | – | > 100 µM | > 100 µM | > 100 µM | > 100 µM | > 100 µM | > 100 µM | –
O=C1CC(n2cccc2)c2c(Br)sc(Br)c21 (stereo unspecified) | – | – | 35.1 µM | – | 33.3 µM | – | 33.1 µM | – | 28.4 µM | 38 µM | 37.8 µM | 36.6 µM | 26.9 µM | > 72.3 µM | –
CC(=O)CC(=O)CCC(=O)O | > 100 µM | > 100 µM | – | – | > 100 µM | – | – | – | > 100 µM | > 100 µM | > 100 µM | > 100 µM | – | – | –
COC(=O)[C@@H]1CN(C(=O)c2ccccc2)C(=O)N1C(=O)OCc1ccccc1 | – | – | > 100 µM | – | > 100 µM | – | > 100 µM | – | > 100 µM | > 100 µM | > 100 µM | > 100 µM | > 100 µM | > 100 µM | –
CC(=O)O[C@H]1CC[C@@]2(C)[C@H](CC[C@@H]3[C@@H]2CC[C@]2(C)[C@@H](c4ccc(=O)oc4)C[C@H]4O[C@]342)C1 | 7.17 µM | 12.5 µM | 3.45 µM | – | 2.39 µM | – | 3.67 µM | – | 4.6 µM | 2.61 µM | 4.1 µM | 0.878 µM | 22.1 µM | – | –
CC1(C2CCC3(C)OC3C2)CO1 (stereo unspecified) | > 100 µM | > 100 µM | > 100 µM | – | > 100 µM | – | > 100 µM | – | > 100 µM | > 100 µM | > 100 µM | > 100 µM | – | – | –
Cc1nc2ccc(Cl)cc2c2c1CCN2c1ccccc1 | – | – | > 100 µM | – | 68.2 µM | – | 24.1 µM | – | 35.2 µM | 32.3 µM | 29.1 µM | 23.9 µM | 36 µM | 55.7 µM | –
COc1ccc(-c2cc(C(O)C3CCCCN3)c3ccccc3n2)cc1 (stereo unspecified) | – | – | 17.1 µM | – | 20.2 µM | – | 13.1 µM | – | 14.5 µM | 28.9 µM | 29.5 µM | 10.4 µM | 14.2 µM | 40.3 µM | –
Cc1ccc(/C(O)=C/c2nc3ccc([N+](=O)[O-])cc3nc2/C=C(\O)c2ccc(C)cc2)cc1 | – | – | 36.8 µM | – | > 100 µM | – | > 100 µM | – | > 100 µM | > 100 µM | > 100 µM | > 100 µM | > 100 µM | > 91.4 µM | –
CN(C)C(=S)Oc1ccc2ccc(=O)oc2c1 | – | – | > 100 µM | – | > 100 µM | – | > 100 µM | – | > 100 µM | > 100 µM | > 100 µM | > 100 µM | > 100 µM | > 100 µM | –
CCOP(=O)(OCC)C(C)(CC)NC(=O)C(C(F)(F)F)C(F)(F)F (stereo unspecified) | – | – | > 100 µM | – | > 100 µM | – | > 100 µM | – | > 100 µM | > 100 µM | > 100 µM | > 100 µM | > 100 µM | > 100 µM | > 71.6 µM
O=C(CC1Sc2ccccc2NC1=O)Nc1ccc(Cl)cc1 (stereo unspecified) | > 100 µM | > 100 µM | > 100 µM | – | > 100 µM | – | 67.2 µM | – | > 100 µM | > 100 µM | > 100 µM | > 100 µM | – | – | –
C/C(Nc1ccc(Cl)cc1Cl)=C1/CCOC1=O | – | – | 66.1 µM | – | 73.9 µM | – | 51.8 µM | – | 66.5 µM | > 100 µM | > 100 µM | > 100 µM | > 100 µM | 73.8 µM | –
COc1ccc(C(O)CC(O)(C(F)(F)F)C(F)(F)F)cc1 (stereo unspecified) | – | – | 34.3 µM | – | > 100 µM | – | 44.4 µM | – | > 100 µM | 49.1 µM | > 100 µM | 60.6 µM | > 100 µM | 61.7 µM | –
NCCOCC(N)C(=O)O (stereo unspecified) | – | – | > 100 µM | – | > 100 µM | – | > 100 µM | – | > 100 µM | > 100 µM | > 100 µM | > 100 µM | > 100 µM | > 100 µM | –
O=C(/C=C/c1cccs1)c1ccccc1Cl | – | – | 28.9 µM | – | 30.8 µM | – | 97.5 µM | – | 27.7 µM | 26.7 µM | > 100 µM | 40.8 µM | 18.2 µM | 35.5 µM | –
CN1C(=O)C(O)CC1c1cccc(C(F)(F)F)c1 (stereo unspecified) | – | – | > 100 µM | – | > 100 µM | – | > 100 µM | – | > 100 µM | > 100 µM | > 100 µM | > 100 µM | > 100 µM | > 100 µM | –
CCOC(=O)C(=O)C(=O)NN(C)C1=NCCN1 | – | – | > 100 µM | – | > 100 µM | – | > 100 µM | – | > 100 µM | > 100 µM | > 100 µM | > 100 µM | > 100 µM | > 100 µM | –
Cc1ccc(S(=O)(=O)n2cc(C#N)c(C#N)c2)cc1 | – | – | > 100 µM | – | > 100 µM | – | 88 µM | – | > 100 µM | 33.9 µM | > 100 µM | > 100 µM | 48.2 µM | 61.4 µM | –
CCCNc1ncnc2[nH]ncc12 | – | – | > 100 µM | – | > 100 µM | – | > 100 µM | – | > 100 µM | > 100 µM | > 100 µM | > 100 µM | > 100 µM | > 100 µM | –
S=C(NCc1ccccc1)N/N=C/c1ccccn1 | – | – | 47.8 µM | – | > 100 µM | – | 52.7 µM | – | 23.9 µM | > 100 µM | > 76.2 µM | > 75.6 µM | > 100 µM | > 100 µM | –
O=c1cc(NCc2ccncc2)[nH]c(=O)[nH]1 | – | – | > 100 µM | – | > 100 µM | – | > 100 µM | – | > 100 µM | > 100 µM | > 100 µM | > 100 µM | > 100 µM | > 100 µM | –
